From patent US11110082B2, “Tyrosine kinase inhibitors” (Rigel Pharmaceuticals, Inc., priority 2016, dated 2021) come the findings set out here.

Structures are written as SMILES.

For this assay, the target named is T1, MerTK (Homo sapiens, UniProt Q12866).
T1 construct: Seed HUVECs (10K cells/well) in EBM-2 complete media; host or cells: HUVEC (primary human umbilical vein endothelial cells)
T1 sequence (Q12866 21-999): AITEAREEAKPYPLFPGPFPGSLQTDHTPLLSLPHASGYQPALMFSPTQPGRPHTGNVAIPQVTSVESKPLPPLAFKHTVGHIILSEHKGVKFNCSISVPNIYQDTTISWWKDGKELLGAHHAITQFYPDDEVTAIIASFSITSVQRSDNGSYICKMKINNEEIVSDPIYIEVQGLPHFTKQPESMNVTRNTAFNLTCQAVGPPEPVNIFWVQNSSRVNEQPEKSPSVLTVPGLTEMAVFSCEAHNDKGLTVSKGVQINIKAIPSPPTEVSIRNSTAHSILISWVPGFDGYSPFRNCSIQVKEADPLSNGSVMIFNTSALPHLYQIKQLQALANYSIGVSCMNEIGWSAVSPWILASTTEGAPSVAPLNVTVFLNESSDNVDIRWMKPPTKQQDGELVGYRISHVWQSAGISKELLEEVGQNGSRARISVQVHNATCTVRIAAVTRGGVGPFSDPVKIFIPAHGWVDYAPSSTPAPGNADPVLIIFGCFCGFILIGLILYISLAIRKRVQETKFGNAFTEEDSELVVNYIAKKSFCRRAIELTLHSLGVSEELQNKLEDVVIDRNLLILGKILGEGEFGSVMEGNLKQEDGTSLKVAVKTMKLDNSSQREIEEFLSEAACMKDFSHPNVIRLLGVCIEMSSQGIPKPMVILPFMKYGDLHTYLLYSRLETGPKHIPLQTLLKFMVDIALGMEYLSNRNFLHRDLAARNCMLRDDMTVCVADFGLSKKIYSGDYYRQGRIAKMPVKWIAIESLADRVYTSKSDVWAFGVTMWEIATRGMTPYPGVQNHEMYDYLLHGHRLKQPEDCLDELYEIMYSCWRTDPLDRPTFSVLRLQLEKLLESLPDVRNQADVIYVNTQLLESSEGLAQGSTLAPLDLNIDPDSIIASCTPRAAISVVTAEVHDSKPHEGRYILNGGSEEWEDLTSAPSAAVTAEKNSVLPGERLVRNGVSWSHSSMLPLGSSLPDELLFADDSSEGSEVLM
As to the kind of experiment: PAKT HTRF-HUVEC assay (pAkt Ser473 HTRF after anti-human MerTK-XL stimulation). It counts as cell-based. Conditions: HUVEC cells, 1 hour compound, stimulated with anti-human MerTK-XL 1 ug/mL for 10 minutes, read-out: inhibition of MerTK. Summed up: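 Akt Ser473 phosphorylation measured by HTRF in lysates of serum-starved HUVECs. Cells received compound for 1 h at 37° C before a 10-min challenge with antibody-cross-linked anti-MerTK (1 ug/mL final); EC50 derived by curve fit.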
(In general: In TR-FRET formats the signal depends on donor and acceptor labels being close together.)

With `O=c1c2cc(N3CCN(C4COC4)CC3)ccc2c2cnc(NCC3CC3)nc2n1[C@H]1CC[C@H](O)CC1` [Compound 111, trans-3-((Cyclopropylmethyl)amino)-5-(4-hydroxycyclohexyl)-8-(4-(oxetan-3-yl)piperazin-1-yl)pyrimido[4,5-c]isoquinolin-6(5H)-one], the EC50 was 380 nM.
Regarding `CCCCNc1ncc2c3ccccc3c(=O)n(C3CC4(CC(O)C4)C3)c2n1` (stereo not drawn) [Compound 112, 3-(Butylamino)-5-(6-hydroxyspiro[3,3]heptan-2-yl)pyrimido[4,5-c]isoquinolin-6(5H)-one], the EC50 was 472 nM.
To `CCCCNc1ncc2c3ccccc3c(=O)n(C3CCC(C)(O)CC3)c2n1` (stereo not drawn) [Compound 113, trans-3-(Butylamino)-5-(4-hydroxy-4-methylcyclohexyl)pyrimido [4,5-c]isoquinolin-6(5H)-one] belongs 44.9 nM.
Turning to `O=c1c2ccccc2c2cnc(NCC3CC3)nc2n1[C@H]1CC[C@H](O)CC1` [Compound 114, trans-3-((Cyclopropylmethyl)amino)-5-(4-hydroxycyclohexyl)pyrimido [4,5-c]isoquinolin-6(5H)-one], the EC50 came to 743 nM.
To `CCCCNc1ncc2c3ccccc3c(=O)n([C@H]3CC[C@@](C)(O)CC3)c2n1` [Compound 115, cis-3-(Butylamino)-5-(4-hydroxy-4-methylcyclohexyl)pyrimido [4,5-c]isoquinolin-6(5H)-one] belongs 554 nM; to `CCC1(CNc2ncc3c4ccccc4c(=O)n([C@H]4CC[C@H](O)CC4)c3n2)CCC1` [Compound 116, trans-3-(((1-Ethylcyclobutyl)methyl)amino)-5-(4-hydroxycyclohexyl)pyrimido [4,5-c]isoquinolin-6(5H)-one], 4620 nM; to `O=c1c2ccccc2c2cnc(NCC3CCC3)nc2n1[C@H]1CC[C@H](O)CC1` [Compound 117, trans-3-((Cyclobutylmethyl)amino)-5-(4-hydroxycyclohexyl)pyrimido [4,5-c]isoquinolin-6(5H)-one], 326 nM.
As for `CCC(F)(F)CNc1ncc2c3ccccc3c(=O)n([C@H]3CC[C@H](O)CC3)c2n1` [Compound 119, trans-3-((2,2-difluorobutyl)amino)-5-(4-hydroxycyclohexyl)pyrimido [4,5-c]isoquinolin-6(5H)-one], the EC50 is 15800 nM.
Take `O=c1c2ccccc2c2cnc(NCCC3CC3)nc2n1[C@H]1CC[C@H](O)CC1` [Compound 120, trans-3-((2-Cyclopropylethyl)amino)-5-(4-hydroxycyclohexyl)pyrimido [4,5-c]isoquinolin-6(5H)-one]: the EC50 is 352 nM.
The figure for `CC1(O)CCC(n2c(=O)c3ccccc3c3cnc(NCC4CC4)nc32)CC1` (stereo not drawn) [Compound 121, trans-3-((Cyclopropylmethyl)amino)-5-(4-hydroxy-4-methylcyclohexyl)pyrimido[4,5-c]isoquinolin-6(5H)-one] is 620 nM.
Take `C[C@]1(O)CC[C@H](n2c(=O)c3ccccc3c3cnc(NCCC4CC4)nc32)CC1` [Compound 122, trans-3-((2-Cyclopropylethyl)amino)-5-(4-hydroxy-4-methylcyclohexyl)pyrimido [4,5-c]isoquinolin-6(5H)-one]: the EC50 is 165 nM.
For `C[C@]1(O)CC[C@H](n2c(=O)c3ccccc3c3cnc(NCC4CCC4)nc32)CC1` [Compound 123, trans-3-((Cyclobutylmethyl)amino)-5-(4-hydroxy-4-methylcyclohexyl)pyrimido [4,5-c]isoquinolin-6(5H)-one], the EC50 was 76.5 nM.
Turning to `O=c1c2cc(CN3CCN(c4ccncc4)CC3)ccc2c2cnc(NCC3CC3)nc2n1[C@H]1CC[C@H](O)CC1` [Compound 124, trans-3-((Cyclopropylmethyl)amino)-5-(4-hydroxycyclohexyl)-8-((4-(pyridin-4-yl)piperazin-1-yl)methyl)pyrimido[4,5-c]isoquinolin-6(5H)-one], the EC50 was 36.2 nM.
For `CCCCNc1ncc2c3ccc(CN4CCN(C)CC4)cc3c(=O)n([C@H]3CCC[C@H](O)CCC3)c2n1` [Compound 127, 3-(Butylamino)-5-((1r,5r)-5-hydroxycyclooctyl)-8-((4-methylpiperazin-1-yl)methyl)pyrimido[4,5-c]isoquinolin-6(5H)-one], the EC50 came out at 89.1 nM.
For the molecule `CCCCNc1ncc2c3ccc(CN4CCN(C)CC4)cc3c(=O)n([C@H]3CC[C@H](C#N)CC3)c2n1` [Compound 128], the EC50 worked out at 126 nM.
For `CC(C)CCNc1ncc2c3ccc(CN4CCN(C)CC4)cc3c(=O)n([C@H]3CC[C@H](O)CC3)c2n1` [Compound 129], the EC50 came to 45.9 nM.
Regarding `CC(C)CNc1ncc2c3ccc(CN4CCN(C)CC4)cc3c(=O)n([C@H]3CC[C@H](O)CC3)c2n1` [Compound 130, trans-5-(4-hydroxycyclohexyl)-3-(isobutylamino)-8-((4-methylpiperazin-1-yl)methyl)pyrimido[4,5-c]isoquinolin-6(5H)-one], the EC50 is 51.2 nM.
The figure for `CCCCNc1ncc2c3ccc(CN4CCN(C)CC4)cc3c(=O)n([C@H]3CC[C@H](C(N)=O)CC3)c2n1` [Compound 131, trans-4-(3-(Butylamino)-8-((4-methylpiperazin-1-yl)methyl)-6-oxopyrimido[4,5-c]isoquinolin-5(6H)-yl)cyclohexane-1-carboxamide] is 54.6 nM.
Regarding `CCCCNc1ncc2c3ccc(CN4CCN(C)CC4)cc3c(=O)n([C@H]3CC[C@H](C(=O)O)CC3)c2n1` [Compound 132, trans-4-(3-(Butylamino)-8-((4-methylpiperazin-1-yl)methyl)-6-oxopyrimido[4,5-c]isoquinolin-5(6H)-yl)cyclohexane-1-carboxylic Acid], the EC50 came to 1550 nM.
To `CN1CCN(Cc2ccc3c(c2)c(=O)n(C2CCOCC2)c2nc(NCC4CC4)ncc32)CC1` [Compound 133] belongs 1670 nM; to `CN1CCN(Cc2ccc3c(c2)c(=O)n([C@H]2CC[C@H](C(N)=O)CC2)c2nc(NCC4CC4)ncc32)CC1` [Compound 134, trans-4-(3-((Cyclopropylmethyl)amino)-8-((4-methylpiperazin-1-yl)methyl)-6-oxopyrimido[4,5-c]isoquinolin-5(6H)-yl)cyclohexane-1-carboxamide], 347 nM.
For `CN1CCN(Cc2ccc3c(c2)c(=O)n([C@H]2CC[C@H](C(=O)O)CC2)c2nc(NCC4CC4)ncc32)CC1` [Compound 135, trans-4-(3-((Cyclopropylmethyl)amino)-8-((4-methylpiperazin-1-yl)methyl)-6-oxopyrimido[4,5-c]isoquinolin-5(6H)-yl)cyclohexane-1-carboxylic Acid], the EC50 is 4040 nM.
As for `CN1CCC(n2c(=O)c3cc(CN4CCN(C)CC4)ccc3c3cnc(NCC4CC4)nc32)CC1` [Compound 136], the EC50 turned out to be 320 nM.
Consider `CN1CCN(Cc2ccc3c(c2)c(=O)n([C@H]2CC[C@H](O)CC2)c2nc(NC4CCC4)ncc32)CC1` [Compound 137, trans-3-(cyclobutylamino)-5-(4-hydroxycyclohexyl)-8-((4-methylpiperazin-1-yl)methyl)pyrimido[4,5-c]isoquinolin-6(5H)-one], for which the EC50 came to 19.6 nM.
For the molecule `CCCCNc1ncc2c3ccc(CN4CCN(C)CC4)cc3c(=O)n([C@H]3CC[C@H](C(=O)NC)CC3)c2n1` [Compound 138, trans-4-(3-(Butylamino)-8-((4-methylpiperazin-1-yl)methyl)-6-oxopyrimido[4,5-c]isoquinolin-5(6H)-yl)-N-methylcyclohexane-1-carboxamide], the EC50 was determined as 68.8 nM.
As for `CCCCNc1ncc2c3ccc(CN4CCN(C)CC4)cc3c(=O)n([C@H]3CC[C@H](C(=O)NCC(F)(F)F)CC3)c2n1` [Compound 139, trans-4-(3-(Butylamino)-8-((4-methylpiperazin-1-yl)methyl)-6-oxopyrimido[4,5-c]isoquinolin-5(6H)-yl)-N-(2,2,2-trifluoroethyl)cyclohexane-1-carboxamide], the EC50 was 134 nM.
The figure for `CCCCNc1ncc2c3ccc(CN4CCN(C)CC4)cc3c(=O)n([C@H]3CC[C@H](C(=O)NC4COC4)CC3)c2n1` [Compound 140, trans-4-(3-(Butylamino)-8-((4-methylpiperazin-1-yl)methyl)-6-oxopyrimido[4,5-c]isoquinolin-5(6H)-yl)-N-(oxetan-3-yl)cyclohexane-1-carboxamide] is 147 nM.
